Test results reported in US20230172901A1, “COMPOSITIONS AND METHODS FOR THE PROPHYLAXIS AND TREATMENT OF FIBROTIC AND INFLAMMATORY CONDITIONS” (GRETALS AUSTRALIA PTY LTD, priority 2020, published 2023).
Entries after “also recorded” stand apart in the source; their conditions may differ.

Tests used:
Type in all cases: in vivo
[1] = system: sheep model for pulmonary fibrosis; assay: Example 2: overall conclusion on efficacy in sheep model of pulmonary fibrosis
Description: (§1) In this study, a total of 10 sheep were used. Fibrosis in two lung segments of each sheep in a similar manner as performed in Example 1 herein. Using this procedure (as detailed further below) the fibrosis was confined to small, isolated regions in the lungs leaving the remaining 90-95% of the healthy unaffected lungs to undertake normal respiratory function.
(§2) All sheep (n=10) in the study were challenged with 2 single doses of bleomycin (3 units) per lung segment, a fortnight apart and the animals were kept for a little over 5 weeks after the final bleomycin dose. Bleomycin is a well-known agent for inducing fibrosis in the lungs. The administration procedure involves inserting a bronchoscope into lung segments in the right and left lung, and then slowly infusing the bleomycin into two segments as shown in FIG. 2 via the bronchoscope biopsy port.
(§3) In the study detailed in Example 1 herein, the dose-rate of pinocembrin was 7 mg pinocembrin per sheep, per week.
For control purposes the lung segment in the opposite lung was used as a bleomycin-positive, without drug, control, as indicated in FIG. 1. The bioactive molecules in vehicle, were delivered as 5 ml infusions through the biopsy port of the bronchoscope. […]

[2] = system: sheep model for pulmonary fibrosis, bleomycin-injured lung segments; assay: Example 2: CD4+ and CD8+ T cells in lung parenchyma (immunohistochemistry)
Description: as §1, §2, §3
For control purposes the lung segment in the opposite lung was used as a bleomycin-positive, without drug, control, as indicated in FIG. 1. The bioactive molecules in vehicle, were delivered as 5 ml infusions through the biopsy port of the bronchoscope. Note that to nullify any small differences (e.g. physiological or anatomical etc.) between the left and right lungs, the infusions of pinocembrin were randomized between the left and right caudal lung segments. Half the animals (5 sheep) received pinocembrin to the right caudal lung segments, while the other 5 sheep received pinocembrin to the left caudal lung segments. The right medial lung segment was left untreated and used for healthy lung control tissue which was sampled at autopsy (FIG. 2). […]
Immunohistochemistry was performed on these frozen tissue sections using the indirect immunoperoxidase technique. […] For cell counts, either 200 immunoperoxidase positive cells were counted in a maximum of 20 microscope fields (×400 magnification) using an area-calibrated grid, or a minimum of 20 microscope fields were counted for less frequent counts.

[3] = system: sheep model for pulmonary fibrosis, bleomycin-injured lung segments; assay: Example 2: bronchoalveolar lavage (BAL) inflammatory cell counts
Description: as §1, §2, §3
For control purposes the lung segment in the opposite lung was used as a bleomycin-positive, without drug, control, as indicated in FIG. 1. The bioactive molecules in vehicle, were delivered as 5 ml infusions through the biopsy port of the bronchoscope. Note that to nullify any small differences (e.g. physiological or anatomical etc.) between the left and right lungs, the infusions of pinocembrin were randomized between the left and right caudal lung segments. Half the animals (5 sheep) received pinocembrin to the right caudal lung segments, while the other 5 sheep received pinocembrin to the left caudal lung segments. The right medial lung segment was left untreated and used for healthy lung control tissue which was sampled at autopsy (FIG. 2).
For each of the bronchoalveolar (BAL) samplings at the timepoints listed in FIG. 1, the endoscope was manipulated into a specific lung-segment for sampling, usually passing through about 3-4 airway branches. For BAL sampling, 10 ml of sterile saline was infused through the biopsy port of the endoscope into the specific lung-segment and then recovered into a syringe through the same port. This procedure recovered between 3 and 5 ml of BAL fluid. The sampling method collects cells for analyses from the small airway and alveolar lumens of the specific lung-segment where the bronchoscope was navigated to. The BAL cells from each segment were centrifuged onto glass slides and stained for differential cell counting of inflammatory cells with Hem-Quik.

[4] = system: sheep model of lung disease, bleomycin-induced lung damage; assay: Example 1: bleomycin sheep pulmonary model, lung function, inflammation and fibrosis (3 sheep)
Description: In animal models, bleomycin is the most widely used agent to characterise pulmonary fibrosis. In the sheep model, intratracheal administrations of two doses of bleomycin is used to induce fibrosis in the lung parenchyma. The overall study protocol is shown at FIG. 1.
For this example, three female merino sheep aged between 9 months and 1 year were utilised. Animals were housed indoors and received anthelminthic to treat for any existing parasitic disease. The sheep were judged to be free from significant pulmonary disease on the basis of clinical examination before the commencement of experiments and on inspection of gross pathology at autopsy. The Animal Experimentation Ethics Committee of the University of Melbourne, which adheres to the Australian Code of Practice for the care and use of laboratory animals for scientific purposes, approved all experimental procedures outlined below.
Bleomycin sulphate was made up at a concentration of 0.6 U bleomycin/mL saline and administered to the left and right caudal lobes at a rate of 3 U per segment to cause injury to the tissue and trigger fibrosis. For the left caudal lobe, 7 mg of pinocembrin in 10% DMSO was administered to test the efficacy of pinocembrin in the treatment or prevention of bleomycin-induced fibrosis. For the right caudal lobe injury was induced by bleomycin, and DMSO alone administered such that any differential effects between the left and right caudal lobes could be attributed to the pinocembrin.
A saline solution was administered to the right medial lobe, as a sham treatment.
Each of the bleomycin, bleomycin/pinocembrin, and saline compositions was administered via the biopsy port of a fibre-optic bronchoscope to the appropriate lung segments as a 5 ml bolus.
Timing of the administration of the various compositions is summarised at FIG. 1, with all three sheep euthanized at week 12.
The sheep were euthanized by an intravenous overdose of barbiturate (Lethabarb, Veterinary Clinic, University of Melbourne, Werribee, Australia) at week 12 as outlined in FIG. 1 for tissue collection and analysis.
Following euthanasia, the lungs were removed and targeted lung segments identified and carefully dissected free from surrounding tissue. Individual segments were then inflated with a 1:1 mixture of OCT and sterile PBS solution. […]
Segmental compliance (Cseg) was assessed using pressure responses to flow in the different segments as indicated FIG. 2 in awake, consciously breathing sheep using a wedged-bronchoscope technique. […]
Segmental lung compliance was calculated. […] Segmental compliance was then calculated from the pressure-flow decay curve generated from this procedure. The process was repeated 3 times for each segment and expressed as an average value for Cseg. […]

[5] = week 12 post-mortem, vs bleomycin alone, 4 weekly infusions of 7 mg, n=10 sheep
[6] = week 12, vs bleomycin alone without pinocembrin, 4 weekly infusions of 7 mg, n=10 sheep
[7] = 7 mg pinocembrin in 10% DMSO, 4 weekly doses, left vs right caudal segment

Compound: O=C1CC(c2ccccc2)Oc2cc(O)cc(O)c21 (stereo not shown) [pinocembrin, 5,7-Dihydroxy-2-Phenyl-2,3-Dihydro-4H-Chromen-4-One]
- anti-inflammatory properties (overall) ([1]; from BAL cell and parenchymal T cell data): strong anti-inflammatory properties
- anti-fibrotic effect (overall) ([1]; from fibrosis scores, Masson's trichrome and hydroxy proline assays): modest anti-fibrotic effect
- sheep with lower CD8+ and CD4+ T cells after pinocembrin treatment ([2]; individual sheep data, 10 sheep): All sheep
- numbers of CD4+ T cells in the lung parenchyma [2, 5]: significantly lower; also recorded: significant reduction
- numbers of CD8+ T cells in the lung parenchyma [2, 5]: significantly lower; also recorded: significant reduction
- sheep with lower inflammatory cell numbers in BAL fluid ([3]; individual sheep data, vs bleomycin without pinocembrin, 10 sheep): Nine out of ten
- neutrophil, % of total BAL cells ([3]; pinocembrin-treated bleomycin-injured lung segments (7.4% in bleomycin without drug)): 3.7%
- numbers of inflammatory cells (neutrophils, eosinophils and lymphocytes) in BAL fluid [3, 6]: significantly lower; also recorded: significantly reduces
- numbers of neutrophils in BAL fluid [3, 6]: significantly lower
- beneficial effect of pinocembrin (significance, number of sheep) [4]: statistically significant and noted in all three sheep
- lung function ([4]; 7 mg pinocembrin in 10% DMSO, 4 weekly doses, bleomycin-injured left caudal segment vs right caudal segment (bleomycin + DMSO)): improvement
- fibrosis [4, 7]: decrease
- inflammation [4, 7]: decrease
